Assay results reported in article PMC7504721, “Targeting the Initiator Protease of the Classical Pathway of Complement Using Fragment-Based Drug Discovery” (Molecules, 2020).

Tested on: lectin pathway
Experiment: Lectin pathway-specific ELISA (mannan, C1q-depleted serum, C4b detection)
Format: biochemical, human
Settings: single dose 500 µM, triplicate, 2% C1q-depleted serum
Protocol: Figure 5 Selectivity and mechanistic analysis of CMP-1611 and CMP-1696. (A) Chemical structure of CMP-1611. (B) Chemical structure of CMP-1696. (C) Dose-dependent inhibition by CMP-1611 and CMP-1696 in a classical pathway-specific ELISA. Data were fit with GraphPad Prism using non-linear regression with a log(inhibitor) vs. response model. […] (D) Complement pathway selectivity of CMP-1611 and CMP-1696. Compounds were assessed for their ability to inhibit activation of complement via the lectin and alternative pathways using single doses of 500 µM compound in triplicate. To ensure only lectin pathway activation, 2% (v/v) C1q-depleted serum (CompTech) was used and mannan was used as the activator. To match serum sources and amounts for this assay, the classical pathway assays were repeated here using serum from CompTech at 2% (v/v) final concentration. Alternative pathway activation assays were performed using 20% (v/v) serum (CompTech), alternative pathway buffers, and C3b detection (see Methods and Materials for details). […]
To carry out classical pathway ELISA-based inhibition assays, IgM was dissolved in coating buffer (100 mM Na2CO3/NaHCO3, pH 9.6) to a final concentration of 3 µg/mL and was dispensed into 96-well plates at 100 µL per well. […] The reaction was stopped with 50 µL of 0.16 M sulfuric acid, and the plate was read at 450 nm using an EnSight multimode plate reader (Perkin-Elmer). […]

SMILES: COCc1nc(-c2ccc(OC3CNC3)cc2)no1 [CMP-1696]
- inhibition of lectin pathway activation: blocked

SMILES: CN(C)c1cc(N2CCCC(N)C2)ncn1 (centres unmarked) [CMP-1611]
- inhibition of lectin pathway activation: no effect
